In US20110142884A1, “Materials and Methods for Making Improved Micelle Compositions” (The Board of Trustees of the University of Illinois, priority 2002, published 2011):
In brackets after ≈: the same amount, converted by molar mass. No end group written: not given here.

Legend:
physchem = conditions: for solubility: aqueous with cosolvent or surfactant or cyclodextrin
Description: Solubilization potential of both micelle compositions for a model drug was measured by HPLC after separation of the unincorporated drug.
Excess drug was removed by centrifugation and the supernatant was analyzed by HPLC. […] HPLC eluent was measured with adsorption at 254 nm.
According to this example, micelle compositions of the invention were further characterized. Particularly, the physiochemical properties of sterically stabilized micelles prepared with DSPE conjugated to molecular weight 2000, 3000, and 5000 PEG were analyzed. The critical micelle concentration (CMC) of phospholipids was determined at pH 7.4 and 25° C. using a water-insoluble fluorescent probe (1,6-diphenyl-1,3,5-hexatriene). Micellar size was determined by quasi-elastic light scattering.
The solvent was then removed by vacuum rotary evaporation under a stream of argon to form a dry film. This dry film was further dried under vacuum overnight to remove any traces of remaining solvent. The dried film was rehydrated with isotonic 0.01M HEPES buffer, pH 7.4. The solution was then flushed with argon, sealed and equilibrated for 12 h at room temperature. The unsolubilized excess paclitaxel was removed by centrifugation at 13,000 g for 5 min to obtain a clear dispersion.
The solubilization potentials of SSMM and SSM for paclitaxel were determined by RP-HPLC. The clear aqueous dispersion was diluted with methanol. 20 μl of each sample was injected at least three times into a μBondapak C-18 column, 3.9 mm×30 cm (Waters, Milford, Mass.) equipped with a C18 column guard. The column was eluted with acetonitrile/water (60:40) at 1.0 ml/min (Waters 600). Detection was by UV absorption measurement at 227 nm (Waters 490). Peak areas were calculated by interfacing the detector to an electronic integrator (Hewlett Packard). The drug concentration was calculated from standard curves.

[1] = system: second order arterioles of the hamster cheek pouch microcirculation; test: Hamster cheek pouch microcirculation, arteriolar diameter during suffusion; assay type: in vivo; conditions: suffusion of 5 nmol for 7 min
Description: According to this example, the vasorelaxant effects of VIP in a SSM were determined according to the following method. Specifically, adult male golden Syrian hamsters were purchased from Sasco (Omaha, Nebr.). Adult male hamsters with spontaneous hypertension and their normotensive controls were purchased from the Canadian Hybrid Farms (Halls Harbour, NS, Canada). Hypertensive animals have been identified after cross-breeding of hamsters with hereditary cardiomyopathy and normal golden Syrian hamsters. These albino animals have previously been used in our laboratory (Rubinstein et al., Biochem. Biophys. Res. Commun. 183:1117-1123 (1992); Artwohl et al., FASEB J. 10:A629 (1996)). Animals were anesthetized with pentobarbital sodium (6 mg/100 g body weight, i.p.). A tracheotomy was performed to facilitate spontaneous breathing. A femoral vein was cannulated to inject supplemental anesthesia during the experiment (2-4 mg/100 g body weight/h). Body temperature was maintained constant (37-38° C.) and monitored via heating pad and a feed back controller throughout the experiment.
The bioactivity of the VIP in SSM by diffusing it in situ was determined by visualization of the microcirculation of the hamster cheek pouch. The microcirculation of the cheek pouch was visualized locally by a method previously developed in our laboratory (Suzuki et al., Life Sci. 57:1451-1457 (1995); Suzuki et al., Am. J. Physiol. 271:R393-R397 (1996); and Suzuki et al., Am. J. Physiol. 271:H282-H287 (1996)). Briefly, the left cheek pouch was spread over a small plastic baseplate, and an incision was made in the outer skin to expose the cheek pouch membrane. The connective avascular tissue layer was removed, and a plastic chamber was placed over the baseplate and secured in place by suturing the skin around the upper chamber. This forms a triple-layered complex: the baseplate, the exposed cheek pouch membrane, and the upper chamber. After these initial procedures, the hamster is transferred to a heated microscope stage. The chamber was connected to a reservoir containing warmed bicarbonate buffer (37-38° C.) that allowed continuous suffusion of the cheek pouch. The buffer was bubbled continuously with 95% N2-5% CO2 (pH 7.4). […]
The cheek pouch microcirculation was epi-illuminated with a 100-W mercury light source and viewed through a microscope (Nikon, Tokyo, Japan) at a magnification of ×40. […] The inner-wall diameter of second order arterioles ([…]), which modulated vascular resistance in the cheek pouch, (Raud, Acta Physiol. Scand. (Suppl.) 578:1-58 (1989); Suzuki et al., Life Sci. 57:1451-1457 (1995); Suzuki et al., Am. J. Physiol. 271:R393-R397 (1996)) was measured from the video display of the microscope image using a videomicrometer (VIA 100; Boeckeler Instruments, Tucson, Ariz.). […]

[2] = Circular dichroism (CD) spectral analysis of peptide conformation, % helicity; assay type: physicochemical; conditions: room temperature
Description: According to this example, circular dichroism (CD) experiments were performed to determine the conformation changes of VIP in phospholipid micelles, pH and temperature changes, and in aqueous solutions. CD spectra were recorded on a JASCO J-700 spectropolarimeter using a fused quartz cell of 1 cm pathlength. Spectra in 0.15 N saline (pH 6.8) and 5 mM Hepes buffer (pH 7.4) were measured at a peptide concentration of 4 μM and at a lipid concentration of 1 mM. The effects of CaM, pH (6.8 or 7.4) and temperature (25° C. or 37° C.) on VIP conformation were also studied. The conformation of VIP fragments was likewise studied. All measurements were carried out at room temperature (˜25° C.) unless otherwise noted. A bandwidth of 1.0 nm and a step resolution of 0.5 nm were used to collect an average of 9 accumulations/sample at the […] (200-260 nm wavelength). The peptide spectra shown have the background buffer scans, and empty vesicle scans subtracted and were smoothed using the noise reduction function. The temperature during spectral analysis was maintained by using a circulating water bath attached to a jacket surrounding the fused quartz CD cell. The percent helical characterization of VIP was determined by a method of Haghjoo et al., Peptide Research 9 (6):327-331 (1996): % helicity=[−(θ208+4000)/29 000]*100 and are reported in table 1.
According to the example, CD was used to determine the conformation of VIP in saline, Hepes buffer and phospholipid micelles at room temperature and at 37° C. The CD spectra analysis was performed after 13 μg of human VIP incubated with 1 ml PEG-DSPE (1 μmol) micelles for 30 min at room temperature as determined by preliminary studies. A bandwidth of 1.0 nm and a step resolution of 0.5 nm were used to collect an average of 9 accumulations/sample at near UV range (200-260 nm). The temperature was maintained during spectral analysis by a circulating water bath attached to a jacket surrounding the fused quartz CD cell. The evaluation of VIP molecule conformation in SSM by using circular dichroism was successful because the distortion caused by spherical particles was eliminate due to the small size and univesicular structure of the SSM. […] The phospholipid micelles were ideal in our study of VIP conformation since it provided a hydrophobic core similar to the phospholipid bilayer of the SSL. Moreover, both the negative charge, and the hydrophilic layer provided by the PEG mimic the conditions of our SSL and make it possible to infer the VIP conformational results.
According to this example, the method of example 4 was repeated to determine the conformation of VIP in saline and phospholipid micelles plus calmodulin (CaM). CD spectra measurements were performed after 13 μg/ml of VIP was incubated with 1.0 μmol/ml of phospholipid micelles for 30 min followed by 10^−10 M CaM incubated with VIP in phospholipid micelles for 2 h at 4° C. (conjugation paper). A bandwidth of 1.0 nm and a step resolution of 0.5 nm were used to collect the average of 9 accumulations/sample at near UV range (200-260 nm).
According to this example the method of example 4 was repeated to determine the conformation of VIP fragments in saline and phospholipid micelles. CD spectra measurements were performed after incubation of VIP fragments with phospholipid micelles, at a molar concentration equivalent to VIP (i.e. 9 μg/ml for VIP10-28 fragment and 6 μg/ml for VIP1-12 fragment), for 30 min. A bandwidth of 1.0 nm and a step resolution of 0.5 nm were used to collect the average of 9 accumulations/sample at near UV range (200-260 nm). Specifically, CD spectra of human VIP fragment (1-12) and (10-28) in the presence of phospholipid micelles are shown in FIG. 5. […] These effects correlate well with the % helicity of VIP fragments determined in saline and in the presence of phospholipids (Table 1). […]

anesthetized rats = test: Infusion in anesthetized rats, haemodynamics by radioactive microsphere technique; assay type: in vivo, rat; conditions: 50 ng/kg/min infused for 30 minutes
Description: According to this aspect of the invention, the effect of infusion of enthelin-1 (ET-1) alone or in a SSM formulation on mean arterial pressure (MAP), cardiac output(CO), total peripheral resistance (TPR), and regional blood circulation in anesthetized rats was examined using a radioactive microsphere technique. SSM with or without ET-1 were prepared according to the method described in Example 11 using DSPE-PEG in saline. Treatments for individual groups consisted of: (i) control, SSM at 2.7 mg/ml (n=6); (ii) ET-1 infusion at 50 ng/kg/min (n=5), and (iii) ET-1 at 50 ng/kg/min in SSM (n=8). Drugs were infused at 0.1 ml/min for 30 minutes.

C=C(C)[C@@H]1CC[C@]2(C(=O)O)CC[C@]3(C)[C@H](CC[C@@H]4[C@@]5(C)CC[C@H](O)C(C)(C)[C@@H]5CC[C@]43C)[C@@H]12 [betullinic acid]
solubility in 10 mg/ml DSPE-PEG (physchem): up to 200 μg/ml

secretin
increase in arteriolar diameter from baseline [1]: 10.3±0.6% | Conformation from CD spectrum in the presence of phospholipid micelles (SSM) [2]: appreciable α-helix conformation | Conformation from CD spectrum in saline [2]: unordered

VIP1-12: VIP fragment 1-12 (HSDAVFTDNYTR; Vasoactive intestinal peptide; UniProt P01282 125-136, looked up, fragment)
Conformation from CD spectrum in the presence of phospholipid micelles (SSM) [2]: primarily random coil structure | % Helicity (in the presence of) Phospholipids [2]: 0.05% | % Helicity (in the presence of) Saline [2]: 0% | Conformation from CD spectrum in saline [2]: primarily random coil structure

C=C(C)[C@@H]1CC[C@]2(C(=O)O)CC[C@]3(C)[C@H](CC[C@@H]4[C@@]5(C)CC[C@H](O)C(C)(C)[C@@H]5CC[C@]43C)[C@@H]12 [betulinic acid]
solubility (physchem; solubility in either SSM or SSC): 250 µg/mL (≈ 547 µM)

enthelin-1 (CSCSSLMDKECVYFCHLDIIW; ends and bridges not checked; cysteine pairing not given here; UniProt P05305 53-73, looked up) [ET-1]
Renal vascular resistance (anesthetized rats): 76% | increase in TPR (anesthetized rats): 102% | vascular resistance in brain (anesthetized rats): 62%

CC(=O)[C@H]1CC[C@H]2[C@@H]3CCC4=CC(=O)CC[C@]4(C)[C@H]3CC[C@]12C [progesterone]
solubility (physchem; thermodynamic from solid, solubility in 10 mg/ml DSPE-PEG): ≤ 198 µg/mL | solubility (physchem; thermodynamic from solid, solubility of progesterone in DSPE-PEG micelles): 198 ± 7 µg/mL (≈ 630 µM) | solubility (physchem; thermodynamic from solid, solubility of progesterone in bile salt micelles): 21 µg/mL

calmodulin [CaM]
% Helicity (in the presence of) Phospholipids [2]: 0% | % Helicity (in the presence of) Saline [2]: 0%

NC(=O)CC[C@@H]1NC(=O)[C@H](Cc2ccccc2)NC(=O)[C@H](Cc2ccc(O)cc2)NC(=O)[C@@H](N)CSSC[C@@H](C(=O)N2CCC[C@H]2C(=O)N[C@@H](CCCN=C(N)N)C(=O)NCC(N)=O)NC(=O)[C@H](CC(N)=O)NC1=O [Vasopressin]
Conformation from CD spectrum in the presence of phospholipid micelles (SSM) [2]: primarily random coil conformation | % Helicity (in the presence of) Phospholipids [2]: 16% | % Helicity (in the presence of) Saline [2]: 8% | Conformation from CD spectrum in saline [2]: primarily random coil conformation
